By Kd is commonly meant a measure of binding affinity in units of concentration.

Like-named read-outs stand apart in the source and are kept apart here.

The test deals with human IKCa1 channel (Homo sapiens, UniProt O15554). The test is described as follows: cell-based. As for the experimental part: COS-7 cells, maintained in Dulbecco's modified Eagle's medium (DMEM) containing 10% heat-inactivated fetal calf serum, 4 mM L-glutamine and 1 mM Na^+ pyruvate, were transiently transfected with hlKCa1.
Chain of human IKCa1 channel (O15554 whole entry): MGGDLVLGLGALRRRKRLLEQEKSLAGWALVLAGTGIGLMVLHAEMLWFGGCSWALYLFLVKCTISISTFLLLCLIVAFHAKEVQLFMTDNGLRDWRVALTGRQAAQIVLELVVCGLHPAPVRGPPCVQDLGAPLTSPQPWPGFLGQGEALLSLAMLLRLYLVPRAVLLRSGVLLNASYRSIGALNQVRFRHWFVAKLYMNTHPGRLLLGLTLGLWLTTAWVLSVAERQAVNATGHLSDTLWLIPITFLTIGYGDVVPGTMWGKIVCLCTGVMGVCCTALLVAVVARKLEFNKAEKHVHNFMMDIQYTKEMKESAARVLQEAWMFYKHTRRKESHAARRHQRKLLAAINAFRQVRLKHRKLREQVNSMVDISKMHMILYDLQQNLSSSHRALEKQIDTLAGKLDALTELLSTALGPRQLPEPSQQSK
Electrophysiological experiments were carried out in the whole-cell configuration of the patch-clamp technique using an EPC-9 amplifier (HEKA Elektronik, Lambrecht Germany) interfaced to a computer running acquisition and analysis software (Pulse and Pulsfit; HEKA Elektronik). Pipettes were pulled from soft glass capillaries, coated with Sylgard (Dow-Corning, Midland, Mich.), and fire polished to resistances of 2.0–4.5 MΩ measured in the bath. COS-7 cells were trypsinized and plated on glass coverslips 3 h before measurement. […] To prevent activation of the native chloride channels in COS-7 cells an aspartate Ringer solution was used as an external solution (160 mM Na^+ aspartate, 4.5 mM KCl, 2 mM CaCl2, 1 mM MgCl2, 5 mM HEPES, adjusted to pH 7.4 with NaOH, with an osmolarity of 290–310 mosM). 200 ms voltage ramps from −120 mV to 40 mV every 10 s were used. The holding potential in all experiments was −80 mV. Series resistance compensation was not employed. The reduction of slope conductance at −80 mV was used to determine the Kd-value by fitting the values to the Hill equation with a Hill coefficient of unity.

Setting [1] is: hIKCa1 in COS-7 cells, reduction of slope conductance at −80 mV, 1 μM free Ca++ in pipette.
[2] abbreviates: read-out: Kd for block of IKCa1, hIKCa1 in COS-7 cells, reduction of slope conductance at −80 mV, 1 μM free Ca++ in pipette.

With `O=C1c2ccccc2C(=O)N1C(c1ccccc1)(c1ccccc1)c1ccccc1Cl` [Compound T71, 2-[(2-Chlorophenyl)diphenylmethyl]-1H-isoindole-1,3(2H)-dione], the “Kd for block of IKCa1” value under setting [1] is recorded as “No effect at 10 μM”.

In the case of `NC(c1ccccc1)(c1ccccc1)c1ccccc1F` [Compound T47, (2-Fluorophenyl)diphenylmethyl amine], under setting [2], the Kd amounted to 2 µM.

For the compound `OC(c1ccccc1)(c1cccc(Cl)c1)c1cccc(Cl)c1` [Compound T5, Bis-(3-chlorophenyl)phenyl methanol], the “Kd for block of IKCa1” value under setting [1] was “No effect at 1 μM”.

On to `Clc1ccccc1C(c1ccccc1)(c1ccccc1)n1cnc2ccccc21` [Compound T85, 1-[(2-Chlorophenyl)diphenylmethyl]-1H-1,3-benzimidazole], for which the “Kd for block of IKCa1” value under setting [1] is on record as “No effect at 1 μM”.

As to `OC(c1ccccc1)(c1ccccc1)c1ccccc1C(F)(F)F` [Compound T54, Diphenyl(2-trifluoromethylphenyl) methanol], the dissociation constant (Kd) came to 0.7 µM.

As for `COc1ccc(C(O)(c2ccc(OC)cc2)c2ccc(OC)cc2)cc1` [Compound T16, Tris-(4-methoxyphenyl) methanol], the Kd stood at 10 µM.

Turning to `c1ccc(C(NCCN(CCNC(c2ccccc2)(c2ccccc2)c2ccccc2)CCNC(c2ccccc2)(c2ccccc2)c2ccccc2)(c2ccccc2)c2ccccc2)cc1` [Compound T20], the “Kd for block of IKCa1” value under setting [1] was “No effect at 1 μM”.

As to `C[n+]1ccn(C(c2ccccc2)(c2ccccc2)c2ccccc2Cl)c1` [Compound T30], under setting [2], the dissociation constant (Kd) is 10 µM.

Regarding `c1ccc(C(c2ccccc2)(c2ccccc2)n2ccnc2)cc1` [Compound T86], the Kd under setting [2] stood at 1.5 µM.

In turn, `O=[N+]([O-])c1ccc(S(=O)(=O)c2cnc(NC(c3ccccc3)(c3ccccc3)c3ccccc3Cl)s2)cc1` [Compound T81, N-{5-[(4-Nitrophenyl)sulfonyl]-1,3-thiazol-2yl}-N[(2-chlorophenyl)-(diphenyl)-methyl]amine] displayed a Kd of 15 µM.

In the case of `COc1ccc(C(c2ccc(OC)cc2)(c2ccc(OC)cc2)n2cccn2)cc1` [Compound T19, 1-[Tris(4-methoxyphenyl)methyl]-1H-pyrazole], the “Kd for block of IKCa1” value under setting [1] was “No effect at 1 μM”.

`FC(F)(F)c1ccn(C(c2ccccc2)(c2ccccc2)c2ccccc2C(F)(F)F)n1` [Compound T59, 1-{Diphenyl[2-(trifluoromethyl)-phenyl]methyl}-3-(trifluoromethyl)-1H-pyrazole] came in with a Kd of 25 µM.

`Clc1ccccc1C(Nc1ncccn1)(c1ccccc1)c1ccccc1` [Compound T68, N-[(2-Chlorophenyl)diphenylmethyl]-N-(2-pyrimidyl)amine]: the affinity, expressed as Kd, was 0.9 µM.

Turning to `Cc1ccn(C(c2ccccc2)(c2ccccc2)c2ccccc2Cl)n1` [Compound T63, 1-[(2-Chlorophenyl)diphenylmethyl]-3-methyl-1H-pyrazole], the Kd was found to be 1.1 µM.

In turn, `Cc1cc(C)n(C(c2ccccc2)(c2ccccc2)c2ccccc2Cl)n1` [Compound T62, 1-[(2-Chlorophenyl)diphenylmethyl]-3,5-dimethyl-1H-pyrazole] registered an equilibrium dissociation constant (Kd) of 12 µM.

`Clc1ccc(C(Nc2nccs2)(c2ccccc2)c2ccccc2)cc1` [Compound T64, N-[(4-Chlorophenyl)diphenylmethyl]-N-(1,3-thiazol-2yl)amine] returned a dissociation constant Kd of 20 µM.

Regarding `Fc1ccccc1C(Nc1nccs1)(c1ccccc1)c1ccccc1` [Compound T78, N-[(2-Fluorophenyl)diphenylmethyl]-N-(1,3-thiazol-2yl)amine], binding was characterised by a dissociation constant (Kd) of 12 µM.

In turn, `OC(c1ccccc1)(c1ccccc1)c1ccc(C(F)(F)F)cc1` [Compound T55, Diphenyl(4-trifluoromethylphenyl) methanol] came in with a Kd of 0.82 µM.

As to `Clc1ccc(C(c2ccccc2)(c2ccccc2)n2cccn2)cc1` [Compound T13, 1[(4-Chlorophenyl)diphenylmethyl]-1H-pyrazole], binding was characterised by a dissociation constant (Kd) of 0.09 µM.

Turning to `FC(F)(F)c1ccc(C(c2ccccc2)(c2ccccc2)n2cccn2)cc1` [Compound T60, 1-{Diphenyl[4-(trifluoromethyl)-phenyl]methyl}-1H-pyrazole], the Kd is 1.5 µM.

`Clc1ccc(C(Nc2ccncc2)(c2ccccc2)c2ccccc2)cc1` [Compound T70, N-[(4-Chlorophenyl)diphenylmethyl]-N-(4-pyridyl)amine] yielded a dissociation constant (Kd) of 11 µM.

In the case of `c1ccc(C(c2ccccc2)(c2cccs2)n2cccn2)cc1` [Compound T38, 1-[Diphenyl(2-thienyl)methyl]-1H-pyrazole], the Kd turned out to be 1.1 µM.

`c1ccc(C(c2ccccc2)(c2cccs2)n2ccnc2)cc1` [Compound T37, 1-[Diphenyl(2-thienyl)methyl]-1H-imidazole]: the Kd is 1 µM.

As to `CCOC(=O)C(C(=O)OCC)C(c1ccccc1)(c1ccccc1)c1ccccc1Cl` [Compound T77], the Kd under setting [2] stood at 0.8 µM.

`FC(F)(F)c1ccc(C(Nc2nccs2)(c2ccccc2)c2ccccc2)cc1` [Compound T61, N-Diphenyl[4-(trifluoromethyl)phenyl]-methyl-N-(1,3-thiazol-2-yl)amine] came in with a Kd of 35 µM.

The compound `OC(c1ccccc1)(c1cccs1)c1ccccc1Cl` (stereo not shown) [Compound T43, (2-Chlorophenyl)(2-thienyl)phenyl methanol] displayed a dissociation constant Kd of 0.75 µM.

Compound `Fc1ccc(C(c2ccccc2)(c2ccccc2)n2cccn2)cc1` [Compound T28, 1-[(4-Fluorophenyl)diphenylmethyl]-1H-pyrazole] had an equilibrium dissociation constant (Kd) of 0.2 µM.

In the case of `COc1ccc(C(O)(c2ccccc2)c2ccc(OC)cc2)cc1` [Compound T15, Bis-(4-methoxyphenyl)phenyl methanol], the Kd is 10 µM.

`Clc1ccccc1C(Nc1ccccn1)(c1ccccc1)c1ccccc1` [Compound T69, N-[(2-Chlorophenyl)diphenylmethyl]-N-(2-pyridyl)amine] displayed an equilibrium dissociation constant (Kd) of 28 µM.

`Cc1csc(NC(c2ccccc2)(c2ccccc2)c2ccccc2Cl)n1` [Compound T79, N-[(2-Chlorophenyl)diphenylmethyl]-N-(4-methyl-1,3-thiazol-2yl)amine] gave an equilibrium dissociation constant (Kd) of 8 µM.

On to `FC(F)(F)c1ccccc1C(Nc1ncccn1)(c1ccccc1)c1ccccc1` [Compound T73, N-Diphenyl[2-(trifluoromethyl)phenyl]-methyl-N-(2-pyrimidinyl)amine], for which binding was characterised by a dissociation constant (Kd) of 15 µM.

Turning to `C[n+]1ccc(C(O)(c2ccccc2)c2ccccc2)cc1` [Compound T8], the “Kd for block of IKCa1” value under setting [1] is “No effect at 10 μM”.

With `COc1ccc(C(C#N)(c2ccc(OC)cc2)c2ccc(OC)cc2)cc1` [Compound T18], the Kd under setting [2] amounted to 40 µM.

As for `FC(F)(F)c1ccccc1C(Nc1nccs1)(c1ccccc1)c1ccccc1` [Compound T72, N-Diphenyl[2-(trifluoromethyl)phenyl]-methyl-N-(1,3-thiazol-2yl)amine], the equilibrium dissociation constant (Kd) worked out at 25 µM.

Regarding `COc1ccc(C(C#N)(c2ccccc2)c2ccc(OC)cc2)cc1` [Compound T17], the Kd under setting [2] turned out to be 35 µM.

As to `NC(c1ccccc1)(c1ccccc1)c1ccccc1C(F)(F)F` [Compound T82, (2-Trifluoromethylphenyl)-diphenylmethyl amine], the Kd under setting [2] was found to be 2.5 µM.

As to `NC(c1ccccc1)(c1ccccc1)c1ccc(F)cc1` [Compound T42, (4-Fluorophenyl)diphenylmethyl amine], the Kd under setting [2] was 5 µM.

These data come from patent US7235577B1 (priority 2000, dated 2007).
